Calls of active or inactive are those of the source.
Legend:
Cytochrome P450 2D6 = Cytochrome P450 2D6 (Homo sapiens, UniProt P10635);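 also: CYP2D6 member of a cytochrome P450 panel assay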
Cytochrome P450 2C9 = Cytochrome P450 2C9 (Homo sapiens, UniProt P11712)
Cytochrome P450 1A2 = target: T1, Cytochrome P450 1A2 (Homo sapiens, UniProt P05177);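 also: PubChem cytochrome P450 panel assay, CYP1A2 panel member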
T1 sequence (P05177 whole entry): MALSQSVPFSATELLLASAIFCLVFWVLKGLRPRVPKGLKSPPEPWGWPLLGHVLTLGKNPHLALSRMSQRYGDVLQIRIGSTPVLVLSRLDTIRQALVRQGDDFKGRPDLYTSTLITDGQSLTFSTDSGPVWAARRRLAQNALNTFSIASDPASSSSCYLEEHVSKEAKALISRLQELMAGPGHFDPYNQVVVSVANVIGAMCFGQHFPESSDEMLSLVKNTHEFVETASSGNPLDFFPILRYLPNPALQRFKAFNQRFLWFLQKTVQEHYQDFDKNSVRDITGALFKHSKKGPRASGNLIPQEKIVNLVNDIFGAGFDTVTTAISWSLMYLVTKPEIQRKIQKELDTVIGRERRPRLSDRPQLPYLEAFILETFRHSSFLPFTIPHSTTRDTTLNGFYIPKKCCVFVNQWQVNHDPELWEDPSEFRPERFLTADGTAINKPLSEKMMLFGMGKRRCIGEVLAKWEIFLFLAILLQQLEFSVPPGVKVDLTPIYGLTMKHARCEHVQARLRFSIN

Cytochrome P450 2C19 = Cytochrome P450 2C19 (Homo sapiens, UniProt P33261); assay: Cytochrome panel assay with activity outcomes. Panel member name: p450-cyp2c19 Compounds with AC50 equal or less than 10 uM are considered active; type: functional
[1] = target: Dual specificity protein phosphatase 3 (Homo sapiens, UniProt P51452); assay: SAR VHR1 Fluorescent Assay for In Vitro dose response studies Set 3. [Related pubchem assays (depositor defined):AID1654, AID1661, AID1878]; type: functional
CAAX prenyl protease 2 [2] = target: CAAX prenyl protease 2 (Homo sapiens, UniProt Q9Y256); assay: human Rce1 protease inhibitors, dose response, biochemical, yeast membranes, quenched-peptide fluorescence, cherry-pick (AID 588849)
CAAX prenyl protease 2 [3] = target: CAAX prenyl protease 2 (Saccharomyces cerevisiae S288c, UniProt Q03530); type: biochemical
Phospholipase A2 = Phospholipase A2 (Homo sapiens, UniProt P04054); assay: PLA2 enzyme inhibitors, dose response, counter-screen for ATG4B inhibitor project, biochemical, set 2 (AID 588586); type: functional
Cysteine protease ATG4B = target: T2, Cysteine protease ATG4B (Homo sapiens, UniProt Q9Y4P1); assay: ATG4B protease inhibitors, dose response, biochemical, fluorescence, set 2 (AID 588584); type: functional
T2 sequence (Q9Y4P1 whole entry): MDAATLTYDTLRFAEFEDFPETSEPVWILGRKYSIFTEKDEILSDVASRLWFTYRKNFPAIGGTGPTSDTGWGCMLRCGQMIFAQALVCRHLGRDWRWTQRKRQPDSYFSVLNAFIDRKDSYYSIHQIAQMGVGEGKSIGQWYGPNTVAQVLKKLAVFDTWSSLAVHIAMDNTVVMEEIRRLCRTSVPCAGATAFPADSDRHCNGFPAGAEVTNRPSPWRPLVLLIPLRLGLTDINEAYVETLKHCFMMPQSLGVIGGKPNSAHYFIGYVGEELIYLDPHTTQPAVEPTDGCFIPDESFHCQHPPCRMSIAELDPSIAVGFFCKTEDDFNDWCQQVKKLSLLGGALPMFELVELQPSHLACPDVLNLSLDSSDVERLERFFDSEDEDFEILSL

BJ [4] = assay: cytotoxicity toward BJ-TERT fibroblasts, dose response, cell-based, RAS-independent, luminescence (AID 1933); type: functional; conditions: Homo sapiens
BJ [5] = assay: cells; type: functional, cell-based; conditions: Homo sapiens
[6] = cytotoxicity toward DRD oncogenic fibroblasts, dose response, cell-based, non-viral oncogenic, luminescence (AID 1934); type: functional; conditions: Homo sapiens

Chain of CAAX prenyl protease 2 (Saccharomyces cerevisiae S288c, UniProt Q03530) (Q03530 whole entry): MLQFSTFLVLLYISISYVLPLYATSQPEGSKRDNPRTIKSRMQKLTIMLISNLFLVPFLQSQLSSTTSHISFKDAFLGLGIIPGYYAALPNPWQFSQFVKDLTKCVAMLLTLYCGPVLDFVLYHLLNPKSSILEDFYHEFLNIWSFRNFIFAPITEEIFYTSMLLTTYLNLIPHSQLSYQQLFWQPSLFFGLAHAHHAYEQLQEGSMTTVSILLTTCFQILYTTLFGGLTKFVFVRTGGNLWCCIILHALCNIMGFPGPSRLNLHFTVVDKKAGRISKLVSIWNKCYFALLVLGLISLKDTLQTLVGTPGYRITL
Chain of Cytochrome P450 2D6 (P10635 whole entry): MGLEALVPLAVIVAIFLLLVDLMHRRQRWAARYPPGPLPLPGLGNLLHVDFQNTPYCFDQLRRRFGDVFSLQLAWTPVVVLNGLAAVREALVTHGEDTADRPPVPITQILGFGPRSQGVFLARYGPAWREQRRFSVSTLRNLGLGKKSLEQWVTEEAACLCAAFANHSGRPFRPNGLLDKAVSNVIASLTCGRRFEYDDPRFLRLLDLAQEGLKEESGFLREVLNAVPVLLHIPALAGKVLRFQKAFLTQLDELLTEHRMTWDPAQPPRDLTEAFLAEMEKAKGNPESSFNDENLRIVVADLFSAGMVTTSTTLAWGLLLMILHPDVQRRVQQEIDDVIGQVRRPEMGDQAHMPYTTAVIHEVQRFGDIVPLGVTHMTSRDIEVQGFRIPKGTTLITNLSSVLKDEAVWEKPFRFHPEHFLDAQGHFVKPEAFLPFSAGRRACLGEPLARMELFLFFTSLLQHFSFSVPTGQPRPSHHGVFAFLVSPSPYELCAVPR
Chain of Cytochrome P450 2C9 (P11712 whole entry): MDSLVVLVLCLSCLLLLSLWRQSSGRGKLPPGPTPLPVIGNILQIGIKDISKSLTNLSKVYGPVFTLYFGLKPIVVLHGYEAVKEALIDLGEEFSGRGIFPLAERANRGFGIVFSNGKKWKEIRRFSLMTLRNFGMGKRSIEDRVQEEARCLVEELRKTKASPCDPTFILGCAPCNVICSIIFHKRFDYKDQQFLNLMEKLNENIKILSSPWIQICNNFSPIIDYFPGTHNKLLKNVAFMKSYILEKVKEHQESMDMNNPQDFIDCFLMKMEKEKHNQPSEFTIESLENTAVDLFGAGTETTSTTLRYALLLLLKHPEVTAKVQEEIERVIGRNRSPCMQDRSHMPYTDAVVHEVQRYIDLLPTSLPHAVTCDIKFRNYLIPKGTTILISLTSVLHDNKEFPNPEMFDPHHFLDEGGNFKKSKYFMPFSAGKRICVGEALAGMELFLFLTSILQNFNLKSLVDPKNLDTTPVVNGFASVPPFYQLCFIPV
Chain of CAAX prenyl protease 2 (Homo sapiens, UniProt Q9Y256) (Q9Y256 whole entry): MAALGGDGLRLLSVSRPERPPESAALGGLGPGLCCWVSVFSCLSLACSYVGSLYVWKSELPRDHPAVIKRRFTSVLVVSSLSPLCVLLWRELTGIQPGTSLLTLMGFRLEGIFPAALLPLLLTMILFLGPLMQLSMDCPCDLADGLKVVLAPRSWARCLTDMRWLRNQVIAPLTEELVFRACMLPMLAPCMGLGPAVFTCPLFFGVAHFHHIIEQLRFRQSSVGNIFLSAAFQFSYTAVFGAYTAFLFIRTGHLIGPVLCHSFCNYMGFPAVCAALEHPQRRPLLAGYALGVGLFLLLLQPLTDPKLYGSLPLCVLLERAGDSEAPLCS
Chain of Phospholipase A2 (P04054 whole entry): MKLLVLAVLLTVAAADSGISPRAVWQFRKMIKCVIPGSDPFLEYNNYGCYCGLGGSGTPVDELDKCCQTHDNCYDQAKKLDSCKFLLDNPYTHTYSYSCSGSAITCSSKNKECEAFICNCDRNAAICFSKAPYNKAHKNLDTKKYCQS
Chain of Dual specificity protein phosphatase 3 (P51452 whole entry): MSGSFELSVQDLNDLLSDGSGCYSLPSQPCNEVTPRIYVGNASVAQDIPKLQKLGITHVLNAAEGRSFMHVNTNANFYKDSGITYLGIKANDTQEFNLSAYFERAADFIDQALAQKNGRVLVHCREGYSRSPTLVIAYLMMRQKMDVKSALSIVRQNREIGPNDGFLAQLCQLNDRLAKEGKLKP
Chain of Cytochrome P450 2C19 (P33261 whole entry): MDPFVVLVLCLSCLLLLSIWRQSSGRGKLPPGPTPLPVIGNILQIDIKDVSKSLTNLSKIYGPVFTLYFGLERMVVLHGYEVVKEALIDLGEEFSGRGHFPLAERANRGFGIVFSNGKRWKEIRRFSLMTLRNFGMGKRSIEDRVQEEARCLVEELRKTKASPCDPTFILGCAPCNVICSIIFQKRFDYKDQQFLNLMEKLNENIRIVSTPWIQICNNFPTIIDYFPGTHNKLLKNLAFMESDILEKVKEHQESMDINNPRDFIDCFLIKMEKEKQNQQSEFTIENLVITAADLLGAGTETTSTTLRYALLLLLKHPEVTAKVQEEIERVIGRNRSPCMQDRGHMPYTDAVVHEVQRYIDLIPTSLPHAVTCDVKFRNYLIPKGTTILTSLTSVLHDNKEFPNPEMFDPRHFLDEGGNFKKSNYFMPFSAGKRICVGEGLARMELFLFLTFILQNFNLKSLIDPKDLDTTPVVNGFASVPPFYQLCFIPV

## Cn1cccc1C(=O)N1CCC2(CCCN(c3ncccn3)C2)CC1
Cytochrome P450 2D6
  AC50: inconclusive
Cytochrome P450 2C9
  AC50: inconclusive
Cytochrome P450 1A2
  AC50: inconclusive
Cytochrome P450 2C19
  AC50: inconclusive

## Cn1cnnc1SCC(=O)Nc1ccc2nc(SCC(=O)c3ccccc3)sc2c1
[1]
  IC50: > 66 µM (inactive)

## CC1Oc2ccccc2C=C1/C=N/NC(=O)[C@@H](C)NC(=O)OC(C)(C)C (some centres not stated)
CAAX prenyl protease 2 [2]
  AC50: 23.1 µM (active)
CAAX prenyl protease 2 [3]
  AC50: 57 µM (active)

## CCC1=Nc2cc(C(=O)NCc3ccco3)ccc2Sc2ccc(Cl)cc21
Phospholipase A2
  IC50: 40.1 µM (inactive)
Cysteine protease ATG4B
  IC50: > 80 µM (inactive)
BJ [4]
  EC50: 1.55 µM (active)
BJ [5]
  EC50: 20.4 µM (active)
[6]
  EC50: 1.97 µM (active)
